Reference: patent publication US7238668B1, “Inhibition of lymphocyte adherence with CS-1-peptides and fragments thereof” (Fred Hutchinson Cancer Research Center, priority 1989, dated 2007)
Ends that are not written are not given here.

Columns and labels:
[1] = system: T lymphocytes (Jurkat or Molt 4 cells); assay: T lymphocyte adhesion to plasma fibronectin, tryptic fragments and CS peptides; format: cell-based, human
Protocol: Antibodies that would alter cell adhesion to purified plasma fibronectin, tryptic fragments and CS peptides were identified as previously described (Wayner and Carter, 1987). […] The plates were blocked with PBS supplemented with 10 mg/ml heat denatured BSA (HBSA). T lymphocyte or HT1080 cells were labeled with Na2 ^51CrO4 (50 μlCi/ml for 2–4 hr), washed, and 5×10^4 HT1080 or cultured T cells or […] were incubated with hybridoma culture supernatants (1:2 dilution in PBS supplemented with 1 mg/ml heat denatured BSA) or control myeloma cell culture supernatant for 15 minutes at room temperature. The cells were allowed to adhere to the protein-coated surfaces in the presence of the hybridoma supernatants for 15–30 minutes (HT1080) or 2–4 hours (lymphocytes) at 37° C. Non-adherent cells were removed by washing with PBS, and the adherent cells were dissolved in SDS/NaOH and bound ^51Cr-cpm were quantitated in a gamma counter.
Human plasma fibronectin was a generous gift from Drs. Horowitz and R. Schulman (New York Blood Center, N.Y.). […] Two overlapping peptides spanning the initial 48 residues of the IIICS region of human fibronectin (CS-1 and CS-2) were synthesized and coupled to rabbit IgG as described (Humphries et al., 1986, and Humphries et al., 1987, J. Biol. Chem. 262:6886–6892).

[2] = system: Jurkat cells; assay: Peptide inhibition of Jurkat cell adhesion to plasma fibronectin (50% inhibition point); format: cell-based, human; conditions: read-out: Molar Concentration (mM) required for 50% inhibition of Jurkat cell adhesion to plasma fibronectin; fibronectin 5 ug/ml; 30 min
Protocol: For peptide inhibition studies, ^51Cr-labeled test cells were pre-incubated with CS-1 derived peptides at various concentrations for 15 min at room temperature. The test cells were then allowed to attach to fibronectin-coated surfaces in the presence of exogenous test peptides for 30–60 min. The assay then proceeded as described above.
For these experiments in Table XIII ^51Cr-labeled Jurkat cells (10^5/well) were incubated in the presence of the varying concentrations (starting at 2 mg/ml) of the indicated peptides for 15 min. The Jurkat cells were then allowed to adhere to plasma fibronectin-coated surfaces (5 ug/ml) in the presence of the peptides for 30 min. Adhesion to fibronectin was graphically depicted as cpm bound to the fibronectin surface (Y axis), plotted as a function of molar peptide concentration (X axis).

[3] = system: LAD (B) lymphocyte adhesion to HUVE monolayers; assay: Endothelial cell adhesion assay, LAD cells on HUVE monolayers; format: cell-based, human; conditions: for Adhesion (cpm) Basal: basal HUVE; for Adhesion (cpm) +IL-1β: IL-1β activated HUVE
Protocol: (§1) HUVEs were incubated with IL-1 β (1 ng/ml) or in some experiments with TNF α (10 ng/ml) for 6–24 hours. At the end of this incubation the HUVE monolayers were washed and used in the adhesion assay.
(§2) Human umbilical vein endothelial cells (HUVEs) were cultured in 48 well plates as described (supra). To measure adherence of lymphocytes to HUVE monolayer cultures, lymphocytes were labeled with Na2 ^51CrO4 (50 μCi/ml) for 2–4 hours), washed, and then 10^5 lymphocytes were incubated with HUVE monolayers in the presence or absence of inhibitory antibodies or CS-1 derived peptides. The lymphocytes were allowed to adhere for 30 minutes at 37°. Non-adherent cells were subsequently removed by washing with PBS, and the adherent cells were dissolved in SDS/NaOH. Bound ^51Cr-cpm were quantitated in a gamma counter. In some experiments, endothelial cells were activated prior to the adhesion assay by incubating with IL-1 β (1 ng/ml) or […] (10 ng/ml) for 6–24 hours in defined CS-100 media (Cell Systems, Seattle, Wash.).

[4] = system: Jurkat (T) lymphocyte adhesion to HUVE monolayers; assay: Endothelial cell adhesion assay, Jurkat cells on HUVE monolayers; format: cell-based, human; conditions: for Adhesion (cpm) Basal: basal HUVE; for Adhesion (cpm) +IL-1β: IL-1β activated HUVE
Protocol: as §1, §2

[5] = system: Ramos (B) lymphocyte adhesion to HUVE monolayers; assay: Endothelial cell adhesion assay, Ramos cells on HUVE monolayers; format: cell-based, human; conditions: for Adhesion (cpm) Basal: basal HUVE; for Adhesion (cpm) +IL-1β: IL-1β activated HUVE
Protocol: as §1, §2

[6] = target: integrin receptor α4β1 (human, UniProt P13612 34-1032; P05556 21-798); assay: cell-based or functional assay
Chain of integrin receptor α4β1 (P13612 34-1032, form in doubt, chain 1 of 2): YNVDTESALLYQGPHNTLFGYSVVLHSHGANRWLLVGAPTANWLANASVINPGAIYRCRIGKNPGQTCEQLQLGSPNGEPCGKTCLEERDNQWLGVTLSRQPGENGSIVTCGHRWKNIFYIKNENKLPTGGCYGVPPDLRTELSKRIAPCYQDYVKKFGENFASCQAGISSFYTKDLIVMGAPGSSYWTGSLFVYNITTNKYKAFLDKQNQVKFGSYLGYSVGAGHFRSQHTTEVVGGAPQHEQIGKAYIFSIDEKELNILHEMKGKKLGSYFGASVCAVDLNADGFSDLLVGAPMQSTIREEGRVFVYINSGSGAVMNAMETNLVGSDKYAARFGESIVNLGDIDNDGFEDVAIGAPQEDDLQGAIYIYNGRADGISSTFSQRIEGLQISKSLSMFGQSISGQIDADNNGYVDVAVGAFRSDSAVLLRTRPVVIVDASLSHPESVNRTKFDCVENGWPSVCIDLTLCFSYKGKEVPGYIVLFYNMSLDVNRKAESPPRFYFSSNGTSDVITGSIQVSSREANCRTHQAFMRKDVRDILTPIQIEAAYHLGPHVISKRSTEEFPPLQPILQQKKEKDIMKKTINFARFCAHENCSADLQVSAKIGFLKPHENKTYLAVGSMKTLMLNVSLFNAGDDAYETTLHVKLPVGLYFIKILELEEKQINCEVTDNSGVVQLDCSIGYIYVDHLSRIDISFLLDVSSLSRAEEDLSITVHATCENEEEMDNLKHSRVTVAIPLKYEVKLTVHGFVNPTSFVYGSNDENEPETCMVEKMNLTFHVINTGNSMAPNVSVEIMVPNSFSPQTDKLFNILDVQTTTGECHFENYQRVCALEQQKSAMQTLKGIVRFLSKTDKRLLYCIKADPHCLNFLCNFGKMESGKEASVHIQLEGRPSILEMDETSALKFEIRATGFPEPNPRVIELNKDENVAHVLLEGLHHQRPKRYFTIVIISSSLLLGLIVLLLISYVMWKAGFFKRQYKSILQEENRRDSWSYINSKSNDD
Chain of integrin receptor α4β1 (P05556 21-798, form in doubt, chain 2 of 2): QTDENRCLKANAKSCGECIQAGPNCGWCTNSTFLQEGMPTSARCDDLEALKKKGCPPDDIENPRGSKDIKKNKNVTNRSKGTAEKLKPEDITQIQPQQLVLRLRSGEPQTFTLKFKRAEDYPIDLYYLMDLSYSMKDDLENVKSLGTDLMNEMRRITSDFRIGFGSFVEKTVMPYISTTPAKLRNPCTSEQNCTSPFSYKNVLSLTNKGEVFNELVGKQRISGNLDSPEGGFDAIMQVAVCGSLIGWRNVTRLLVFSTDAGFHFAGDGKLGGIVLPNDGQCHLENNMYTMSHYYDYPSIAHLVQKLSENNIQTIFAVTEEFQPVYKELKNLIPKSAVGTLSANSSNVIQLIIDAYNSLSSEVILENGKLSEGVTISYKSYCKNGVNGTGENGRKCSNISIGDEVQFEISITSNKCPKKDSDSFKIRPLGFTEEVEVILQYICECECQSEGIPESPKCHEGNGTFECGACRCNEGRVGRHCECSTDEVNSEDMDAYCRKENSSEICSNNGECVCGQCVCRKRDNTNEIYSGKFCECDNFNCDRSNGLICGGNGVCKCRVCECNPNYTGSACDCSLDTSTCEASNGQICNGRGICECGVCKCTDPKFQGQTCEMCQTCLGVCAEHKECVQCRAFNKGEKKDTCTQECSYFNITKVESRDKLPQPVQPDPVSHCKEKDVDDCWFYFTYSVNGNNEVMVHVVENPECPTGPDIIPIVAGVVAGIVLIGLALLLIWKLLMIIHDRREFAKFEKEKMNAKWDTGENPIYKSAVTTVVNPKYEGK

[7] = system: Jurkat cells; assay: Jurkat cell adhesion to surfaces coated with peptide-rsa conjugates; format: cell-based, human; conditions: FIGS. 13-15; Jurkat, U937 and HUT 78 cells
Protocol: ^51Cr-labeled Jurkat cells ([…]) were incubated on surfaces coated with varying concentrations of peptide-rsa conjugates starting at 50 ug/ml (w/v) fragment or peptide (based on peptide not peptide-conjugate weight). […] (No adhesion=no measurable adhesion above negative controls.)
Adhesion of various hematopoetic cell lines to CS-1 (open bars; FIG. 12) or LDV minimal peptide-coated surfaces (cross-hatched bars; FIG. 12) was tested as follows: Jurkat (T lymphoblastoid), A375 (melanoma), U937 (monocytic), Ramos (B lymphoblastoid), and ST-1 (EBV transformed B lymphoblastoid) cells were allowed to adhere to CS-1-rsa or LDVPST-rsa (5 ug/ml peptide) coated surfaces for 30 min at 37° C. At the end of this time the non-adherent cells were washed off and the adherent cells were solubilized in NaOH/SDS and quantitated in a gamma counter. The results are expressed as bound counts per minute.

With “CS-1 (rabbit IgG conjugate): CS-1 peptide coupled to rabbit IgG (DELPQLVTLPHPNLHGPEILDVPST; also: coupled to rabbit IgG, site not given here)” the “T lymphocyte attachment to peptide (rabbit IgG conjugate)-coated plastic surfaces” value [1] was “recognize and attach”.

For “CS-2 (rabbit IgG conjugate): CS-2 peptide of the IIICS region coupled to rabbit IgG (PSTVQKTPFVTHPGYDTGNGIQLPGT; also: coupled to rabbit IgG, site not given here)”, the “T lymphocyte attachment to peptide (rabbit IgG conjugate)-coated plastic surfaces” value [1] was “do not attach”.

Substance “DELPQLVTLPHPN [Peptide A13, N-terminal peptide of CS-1]” has an IC50 [2] of over 1 mM.

In the case of “DELPQLVTLPHPNLHGPEILDVPST [Peptide 344, synthetic CS-1 peptide of the fibronectin IIICS region]”, the “Adhesion (cpm) Basal” value ([3]; peptides, Table X) is reported as 17500 cpm, the “Adhesion (cpm) Basal” value ([4]; peptides, Table X) is reported as 29568 cpm and the “Adhesion (cpm) Basal” value ([5]; peptides, Table X) is reported as 1660 cpm.

LDVPST [Peptide 351] was tested, and the “Adhesion (cpm) +IL-1β” value ([3]; Table XI, no peptide 71408) was 92792 cpm, the “Adhesion (cpm) Basal” value ([3]; Table XI, no peptide 44860) was 39700 cpm and the IC50 [2] was over 1.6 mM. For the same substance, the “Adhesion (cpm) +IL-1β” value ([4]; Table XI, no peptide 314848) was 326260 cpm, the “Adhesion (cpm) Basal” value ([4]; Table XI, no peptide 161092) was 166948 cpm and the “Adhesion (cpm) +IL-1β” value ([5]; Table XI, no peptide 12936) was 15092 cpm. For the same substance, the “Adhesion (cpm) Basal” value ([5]; Table XI, no peptide 2724) was 3532 cpm.

LDVPST peptide showed an Adhesion (cpm), Jurkat (T) on HUVE, +IL-1β; no peptide 314848 [6] of 326000 cpm, an Adhesion (cpm), Jurkat (T) on HUVE, Basal; no peptide 161092 [6] of 167000 cpm and an Adhesion (cpm), LAD (B) on HUVE, +IL-1β; no peptide 71408 [6] of 92800 cpm. The Adhesion (cpm), LAD (B) on HUVE, Basal; no peptide 44860 [6] was 39700 cpm, the Adhesion (cpm), Ramos (B) on HUVE, +IL-1β; no peptide 12936 [6] was 15100 cpm and the Adhesion (cpm), Ramos (B) on HUVE, Basal; no peptide 2724 [6] was 3530 cpm.

In the case of VPST [Peptide 350], the “Adhesion (cpm) +IL-1β” value ([3]; Table XI, no peptide 71408) is reported as 98860 cpm, the “Adhesion (cpm) +IL-1β” value ([3]; peptides, Table X) is reported as 42728 cpm and the “Adhesion (cpm) Basal” value ([3]; Table XI, no peptide 44860) is reported as 38176 cpm. For the same substance, the IC50 [2] was over 2.5 mM, the “Adhesion (cpm) +IL-1β” value ([4]; Table XI, no peptide 314848) was 322208 cpm and the “Adhesion (cpm) +IL-1β” value ([4]; peptides, Table X) was 127544 cpm. The “Adhesion (cpm) Basal” value ([4]; Table XI, no peptide 161092) was 203716 cpm, the “Adhesion (cpm) +IL-1β” value ([5]; Table XI, no peptide 12936) was 15320 cpm and the “Adhesion (cpm) +IL-1β” value ([5]; peptides, Table X) was 4568 cpm. For the same substance, the “Adhesion (cpm) Basal” value ([5]; Table XI, no peptide 2724) was 4168 cpm.

In the case of “VPST-rsa: VPST conjugated to rabbit serum albumin (also: conjugated to rabbit serum albumin)”, the “Induction of stable cell adhesion” value [7] is reported as “relatively inactive in inducing stable cell adhesion”.

“leu-asp-val (Leu-Asp-Val; not fully specified; printed as leu-asp-val) [LDV]” gave an IC50 [2] of over 2.7 mM.
